Reference: patent US8759364B2, “Methods of treating bone mass diseases” (The Trustees of Columbia University in the City of New York, priority 2008, dated 2014)
“Also recorded” adds a separate entry of the source.

Key:
serotonin in the brain = test: Brain serotonin and blood brain barrier crossing after oral feeding; assay type: in vivo, mice
Experimental: The ability of selective TPH1 inhibitor CBMIDA to reduce peripheral serotonin measured in serum was tested. Either 250 or 500 mg/kg doses of CBMIDA were administered orally twice in 20 hours to 4 week old mice, 4-5 mice per group. As a control, some mice were untreated and some received 250 mg/kg pCPA orally. […] CBMIDA has been reported to be an EDTA analog that increases osteoid volume in beagle dogs and induces proliferation of rat calvarial-derived osteoblasts in vitro (Xie, et al., Bioorganic & Medicinal Chemistry Letters 15 (2005) 3267-3270, incorporated herein by reference in its entirety).
Before the experiments, animals were separated into individual cages one day prior to the experiment. Compounds were fed orally (gavage) to the mouse, calculated according to the weight of the mouse, twice a day at 1700 h and at 1100 h. […] This route created two potential barriers for the compound to reach the brain. […] Control animals received the same volume of vehicle. Blood was collected through heart puncture on isofluorane-anaesthesized animals and allowed to clot for 5 minutes on ice. The serum was separated, snap chilled in liquid nitrogen and frozen at −80° C. till analyzed. Brainstems from all the animals were collected and processed for brain serotonin measurement through HPLC.

Lrp5−/− mice = test: pCPA treatment of WT and Lrp5−/− mice (bone histomorphometry, serum serotonin, TPH1/TPH2 expression); assay type: in vivo
Experimental: Consistent with the conclusion that the increase in serum serotonin level is responsible fully or partly for the bone phenotype of the Lrp5−/− mice is the discovery that pCPA, a serotonin synthesis inhibitor (Eldridge et al., 1981, Ann. Rev. Physiol. 43:121-135), prevented the appearance of the Lrp5−/− bone phenotype by decreasing serotonin production. WT and Lrp5−/− mice were treated with 300 mg/kg pCPA intraperitoneally three times per week, from 3 weeks to 12 weeks of age (FIG. 7A) and the changes in serum serotonin levels, TPH1 expression in gut and TPH2 expression in brain stem were analyzed. Bone histomorphometry was also performed. […] This rescue of the Lrp5−/− phenotype was achieved by normalization of the gut TPH1 mRNA and of serum serotonin levels (FIGS. 7C and 7D).
Generation of Lrp5−/− (Kato et al., 2002, J. Cell Biol. 157:303-314) β-cateninfloxed/floxed (Glass et al., 2005, Dev. Cell 8:751-764), α1(I)collagen-cre transgenic (Dacquin et al., 2002, Dev. Dyn. 224:245-251) and Htt−/− (Ansorge et al., 2008, J. Neurosci. 28:199-207) mice were as described previously. Lrp5+/−;Htt+/− double heterozygous mice were generated by crossing Lrp5+/− and Htt+/− mice. Three week-old Wt or Lrp5−/− mice were administered pCPA on alternate days for 9 weeks by i.p. All animal protocols were approved by the Animal Care Committees of Columbia University.
Static histomorphometry measurements were performed as previously described in accordance with standard nomenclature, using the Osteomeasure Analysis System (Osteometrics, Inc) (Ducy et al., 2000, Cell 100:197-207). Four to 9 animals were assigned per group.
Serotonin serum levels were quantified using immunoassay kits from Fitzgerald (Serotonin) and serotonin levels in the different regions of the brain were quantified by HPLC method as described previously (Mann et al., 1992, Arch. Gen. Psychiatry 49:442-446).

[1] = 300 mg/kg pCPA i.p. three times per week, 3 to 12 weeks of age, FIG. 7

For `NC(Cc1ccc(Cl)cc1)C(=O)O` (stereo not shown) [pCPA, para-chlorophenylalanine], the “serotonin in the brain” value (serotonin in the brain; 250 mg/kg orally) was “did not decrease”, the “crossing of the blood brain barrier” value (serotonin in the brain; at the amounts used (250 mg/kg)) was “did not cross” and the “bone mass in WT mice” value (Lrp5−/− mice; 300 mg/kg pCPA i.p. three times per week, 3 to 12 weeks of age) was “without overtly affecting”. The “gut TPH1 mRNA in Lrp5−/− mice” value (Lrp5−/− mice; [1]) was “normalization”, the “serum serotonin levels in Lrp5−/− mice” value (Lrp5−/− mice; [1]) was “normalization; also recorded: normalizes” and the “bone abnormalities (low bone phenotype) of Lrp5−/− mice” value (Lrp5−/− mice; 300 mg/kg pCPA i.p. three times per week, 3 to 12 weeks of age, histomorphometry, FIG. 7B) was “corrected”. For the same compound, the “Brain TPH2 mRNA levels” value (Lrp5−/− mice; treated mice, 300 mg/kg pCPA i.p.) was “not affected”.
